Data from PMC10818931, “In Vitro Evaluation of Drug–Drug Interaction Potential of Epetraborole, a Novel Bacterial Leucyl-tRNA Synthetase Inhibitor” (Pharmaceuticals, 2024).
Read-outs that look alike come from different tables or passages of the source.

Tests used:
P-gp [1] = target: T1, P-gp (Homo sapiens, UniProt P08183); assay: Inhibition of P-gp digoxin efflux transport in MDR1-MDCK cells
Description: A preincubation with EBO or known inhibitor was performed on both sides to preload the cells. After 30 min, the preincubation solution was aspirated. Aliquots of fresh dosing solution with or without EBO or known inhibitor (0.55 mL for AP-to-BL, 1.55 mL for BL-to-AP) were added to the donor compartment, and HBSSg_7.4 with or without EBO or known inhibitor (1.5 mL for AP-to-BL, 0.5 mL for BL-to-AP) were added to the receiver compartment. Receiver samples (200 µL) and donor samples (50 µL) were taken at preselected time points.
Cell monolayer integrity was examined using lucifer yellow (excitation 450 nm and emission 538 nm). The concentrations of the probe substrate in the donor and receiver samples, as well as EBO in dosing solutions, were determined by LC-MS/MS.

CYP3A4 = assay: Automated time-dependent inhibition assay in HLM; format: in vitro ADME, human; conditions: EBO 30 and 50 µM, 30 min preincubation with NADPH
Description: (§1) The effect of EBO (30 and 50 µM) on time-dependent inhibition of CYP3A4 (testosterone and midazolam substrate) and CYP2D6 ([…] substrate) was determined using methodologies described previously. The Genesis robot (Tecan, Reading, UK) running Gemini software (https://www.tecan.com) was used to perform a fully automated TDI assay. The assay ran a preincubation (30 min at 37 °C, 1 mg/mL HLM incubation containing 1 mM NADPH and EBO) and a secondary incubation (containing 50 µL aliquot from the preincubation, 1 mM NADPH, and substrates for CYP3A4 and CYP2D6). At the end of the secondary incubation (15 min at 37 °C), an aliquot (50 µL) was removed and added to 100 µL of methanol to quench the reaction. Quenched samples were then chilled at −20 °C for 2 h, centrifuged at 2000× g for 15 min, and the supernatants were transferred to microtiter plates for LC/MS-MS analysis.

CYP2E1 = target: T2, CYP2E1 (Homo sapiens, UniProt P05181); assay: CYP inhibition (direct and metabolism-dependent) in human hepatic microsomes; format: in vitro ADME
T2 construct: Characterized, pooled, human hepatic microsomes from 15 individuals; tissue CellzDirect (Durham, NC, USA) or XenoTech LLC (Lenexa, KS, USA); host or cells: pooled human liver microsomes (15 donors)
T2 sequence (P05181 whole entry): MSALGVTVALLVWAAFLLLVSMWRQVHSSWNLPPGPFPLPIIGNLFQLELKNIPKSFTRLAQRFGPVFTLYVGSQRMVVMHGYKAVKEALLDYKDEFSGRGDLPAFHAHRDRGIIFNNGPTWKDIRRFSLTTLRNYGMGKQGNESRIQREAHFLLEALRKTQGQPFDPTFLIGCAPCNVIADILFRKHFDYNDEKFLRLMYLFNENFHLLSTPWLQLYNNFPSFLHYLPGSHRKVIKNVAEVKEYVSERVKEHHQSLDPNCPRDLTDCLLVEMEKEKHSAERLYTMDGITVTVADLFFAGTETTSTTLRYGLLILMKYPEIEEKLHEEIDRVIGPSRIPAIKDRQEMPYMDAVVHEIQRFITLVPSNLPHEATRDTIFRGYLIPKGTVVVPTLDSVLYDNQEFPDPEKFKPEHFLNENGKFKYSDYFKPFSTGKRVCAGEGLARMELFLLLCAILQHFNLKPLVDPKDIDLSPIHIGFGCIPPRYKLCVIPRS
Description: (§2) The direct inhibitory potential of EBO on cytochrome P450 activities O-deethylase (CYP1A2), bupropion hydroxylase (CYP2B6), amodiaquine N-deethylase (CYP2C8), diclofenac 4′-hydroxylase (CYP2C9), S-mephenytoin 4′-hydroxylase (CYP2C19), bufuralol 1′-hydroxylase (CYP2D6), chlorzoxazone 6-hydroxylase (CYP2E1), testosterone 6β-hydroxylase (CYP3A), and midazolam 1′-hydroxylase (CYP3A) was assessed in vitro using human hepatic microsomes according to Covance Laboratory (Madison, WI, USA) SOP. A single substrate concentration was used, approximating the concentration of substrate that gives half the maximum reaction velocity (Km) for human hepatic microsomes for each cytochrome P450 activity. […] All sample and control incubations were performed in triplicate and were analyzed by LC-MS/MS. Incubation mixtures contained microsomal protein and substrate in a 0.1 M potassium phosphate buffer (pH 7.4) containing 1 mM EDTA (assay buffer). […] Incubations were terminated by the addition of 100 µL of an internal standard solution followed by vortex mixing. Protein was removed by centrifugation at 1500× g for 5 min at 4 °C, and supernatants were transferred to a separate plate and stored at 4 °C prior to LC-MS/MS analysis. The analyte for each activity assay was quantitated by comparison to a linear curve of an authentic standard prepared using human microsomal protein. […] Incubations were performed at substrate concentrations approximating the average Km values. […] For determination of control activities, NADPH was added after the addition of each substrate. Samples were then processed as previously described.

CYP2C19 = target: T3, CYP2C19 (Homo sapiens, UniProt P33261); assay: as above; format: in vitro ADME
T3 construct: tissue CellzDirect; XenoTech LLC; host or cells: pooled human liver microsomes
T3 sequence (P33261 whole entry): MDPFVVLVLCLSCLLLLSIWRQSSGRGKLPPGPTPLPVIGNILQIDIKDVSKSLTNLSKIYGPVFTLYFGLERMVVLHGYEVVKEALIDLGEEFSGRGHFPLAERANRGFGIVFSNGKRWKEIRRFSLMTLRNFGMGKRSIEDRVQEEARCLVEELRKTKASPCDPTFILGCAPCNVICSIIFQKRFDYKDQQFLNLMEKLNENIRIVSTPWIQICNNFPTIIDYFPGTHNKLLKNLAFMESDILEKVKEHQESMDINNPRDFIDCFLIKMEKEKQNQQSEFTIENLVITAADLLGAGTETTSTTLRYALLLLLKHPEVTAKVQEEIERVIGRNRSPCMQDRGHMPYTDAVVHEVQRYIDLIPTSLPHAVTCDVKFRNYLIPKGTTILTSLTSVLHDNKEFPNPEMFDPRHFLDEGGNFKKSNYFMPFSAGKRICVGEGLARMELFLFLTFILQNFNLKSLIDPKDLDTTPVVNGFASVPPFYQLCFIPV
Description: as §2

CYP2B6 = assay: as above; format: in vitro ADME
Description: as §2

P-gp [2] = target: T1, P-gp; assay: Caco-2 efflux ratio without/with P-gp inhibitor (P-gp substrate); format: in vitro ADME; set-up: host or cells: Caco-2; conditions: for efflux ratio: Caco-2, 1, 10, 100 µM, 1–4 h
Description: (§3) ^14C-EBO permeability in Caco-2 Cells (MDR1/Protein Glycoprotein or P-gp) was determined using methodologies described previously. The apparent permeability of ^14C-EBO was determined in both the apical to basolateral and the basolateral to apical directions, in triplicate, at final concentrations of 1, 10, and 100 μM. Cell monolayers were incubated with ^14C-EBO at 37 °C for 1, 2, 3, and 4 h. The transepithelial electrical resistance (TEER) values of the monolayers prior to and following each experiment were measured to confirm the integrity of the Caco-2 cell monolayers. The apparent permeability of ^14C-EBO (at a final concentration of 10 μM) was determined in both the apical to basolateral and basolateral to apical directions under the same conditions as previously described in the presence of P-gp inhibitors cyclosporine A (10 μM) and verapamil (100 μM) in the donor compartment.

P-gp [3] = target: T1, P-gp; assay: Effect on P-gp mediated transport of 3H-digoxin in Caco-2; format: in vitro ADME; set-up: host or cells: Caco-2
Description: The concentrations of each radiolabeled compound in the resulting samples were determined using liquid scintillation counting (LSC).

CYP2D6 = target: T4, CYP2D6 (Homo sapiens, UniProt P10635); assay: Automated time-dependent inhibition assay in HLM; format: in vitro ADME; conditions: EBO 30 and 50 µM, 30 min preincubation with NADPH
T4 construct: Characterized, pooled, human hepatic microsomes from 15 individuals; tissue CellzDirect (Durham, NC, USA) or XenoTech LLC (Lenexa, KS, USA); host or cells: pooled human liver microsomes (15 donors)
T4 sequence (P10635 whole entry): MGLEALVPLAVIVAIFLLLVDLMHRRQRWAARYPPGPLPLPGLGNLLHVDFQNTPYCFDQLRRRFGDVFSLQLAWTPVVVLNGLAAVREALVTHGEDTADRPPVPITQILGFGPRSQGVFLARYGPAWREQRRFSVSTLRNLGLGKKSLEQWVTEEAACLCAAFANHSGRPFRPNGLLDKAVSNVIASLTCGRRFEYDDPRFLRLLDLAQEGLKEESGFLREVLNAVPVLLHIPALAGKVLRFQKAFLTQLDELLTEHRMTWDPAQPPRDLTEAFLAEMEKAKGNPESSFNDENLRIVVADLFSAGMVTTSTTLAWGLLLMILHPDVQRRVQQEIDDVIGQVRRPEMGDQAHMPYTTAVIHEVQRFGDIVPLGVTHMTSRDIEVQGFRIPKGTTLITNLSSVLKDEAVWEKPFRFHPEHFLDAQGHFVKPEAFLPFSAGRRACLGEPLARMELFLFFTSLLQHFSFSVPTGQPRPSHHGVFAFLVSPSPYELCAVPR
Description: as §1

[4] = Apparent permeability through Caco-2 cell monolayers; conditions: human, Caco-2
Description: as §3

Caco-2 cell monolayers = assay: as above; conditions: in vitro
Description: as §3

major CYP enzymes = assay: Stability studies (CYP substrate potential, hepatic microsomes); format: in vitro ADME
[5] = metabolism-dependent inhibition

T1 sequence (P08183 whole entry): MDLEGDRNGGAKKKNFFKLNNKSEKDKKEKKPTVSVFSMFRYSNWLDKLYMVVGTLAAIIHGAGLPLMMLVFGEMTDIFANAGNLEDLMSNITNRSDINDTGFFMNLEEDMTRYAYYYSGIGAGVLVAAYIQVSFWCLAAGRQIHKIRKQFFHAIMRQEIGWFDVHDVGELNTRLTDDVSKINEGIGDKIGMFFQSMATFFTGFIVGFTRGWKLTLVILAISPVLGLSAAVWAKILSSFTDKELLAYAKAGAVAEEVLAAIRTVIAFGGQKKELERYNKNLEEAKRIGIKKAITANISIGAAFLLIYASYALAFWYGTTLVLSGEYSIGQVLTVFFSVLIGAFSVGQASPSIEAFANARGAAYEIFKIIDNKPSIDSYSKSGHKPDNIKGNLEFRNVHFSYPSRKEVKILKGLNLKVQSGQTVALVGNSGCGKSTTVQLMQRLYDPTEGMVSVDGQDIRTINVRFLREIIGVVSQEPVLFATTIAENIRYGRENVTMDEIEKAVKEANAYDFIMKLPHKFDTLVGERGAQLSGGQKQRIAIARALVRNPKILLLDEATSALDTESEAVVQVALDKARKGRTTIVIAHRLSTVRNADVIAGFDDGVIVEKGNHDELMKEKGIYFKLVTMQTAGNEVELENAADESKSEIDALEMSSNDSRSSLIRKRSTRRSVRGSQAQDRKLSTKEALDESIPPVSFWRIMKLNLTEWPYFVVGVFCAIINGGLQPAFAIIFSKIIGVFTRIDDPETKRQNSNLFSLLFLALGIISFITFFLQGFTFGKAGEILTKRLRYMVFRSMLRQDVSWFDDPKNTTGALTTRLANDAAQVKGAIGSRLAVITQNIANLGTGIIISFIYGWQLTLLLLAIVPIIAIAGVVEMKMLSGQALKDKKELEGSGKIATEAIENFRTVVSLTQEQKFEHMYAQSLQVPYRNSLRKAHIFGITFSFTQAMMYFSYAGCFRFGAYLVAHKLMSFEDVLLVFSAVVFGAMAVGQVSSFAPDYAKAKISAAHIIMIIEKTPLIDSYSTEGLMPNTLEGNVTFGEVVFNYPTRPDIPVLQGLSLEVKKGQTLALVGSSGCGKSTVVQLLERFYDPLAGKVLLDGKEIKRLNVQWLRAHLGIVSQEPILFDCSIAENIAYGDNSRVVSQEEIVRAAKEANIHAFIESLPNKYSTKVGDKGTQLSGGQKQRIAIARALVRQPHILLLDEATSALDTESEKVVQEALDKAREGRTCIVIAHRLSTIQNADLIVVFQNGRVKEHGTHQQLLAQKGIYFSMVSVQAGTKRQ

Compound: NC[C@H]1OB(O)c2c(OCCCO)cccc21 [EBO, Epetraborole]
- IC50 (P-gp [1]): 5650 µM
- [Igut]/IC50 (P-gp [1]; human, pH 7.4): ≤ 3
- inhibition at 17000 µM (P-gp [1]; human, pH 7.4): > 50%
- Time-dependent inhibition (CYP3A4): No time-dependent inhibition
- MDI IC50 Fold Change (CYP2E1; [5]): No
- IC50 (CYP2E1; read-out: as an Inhibitor IC50): > 100 µM
- MDI IC50 Fold Change (CYP2C19; [5]): No
- IC50 (CYP2C19; read-out: as an Inhibitor IC50): > 100 µM
- IC50 (CYP2B6; human, human liver microsomes, pH 7.4, probe bupropion, read-out: as an Inhibitor IC50): > 100 µM
- MDI IC50 Fold Change (CYP2B6; [5]): No
- P-gp substrate (P-gp [2]; Caco-2, efflux ratio without/with P-gp inhibitor): not a P-gp substrate
- efflux ratio (P-gp [2]; vehicle (no P-gp inhibitor), listed as 14C-EBO): <2
- efflux ratio (P-gp [2]; human, with cyclosporine A (10 µM), Cyclosporine A (10 µM), read-out: Efflux Ratio): < 2
- efflux ratio (P-gp [2]; human, with verapamil (100 µM), Verapmil (100 µM), read-out: Efflux Ratio): < 2
- efflux ratio (P-gp [2]; human, vehicle (no P-gp inhibitor), read-out: Efflux Ratio): < 2
- Inhibition of P-gp-mediated transport of digoxin (P-gp [3]): not a significant inhibitor
- Efflux ratio of digoxin in the presence of test article (P-gp [3]; EBO 100 µM): unchanged
- Time-dependent inhibition (CYP2D6): No time-dependent inhibition
- Papp A→B [4]: ≤ 0.31 ×10⁻⁶ cm/s
- Papp B→A [4]: ≤ 0.35 ×10⁻⁶ cm/s
- Permeability (in words) (Caco-2 cell monolayers): low permeability
- Substrate for major CYP enzymes (stability studies) (major CYP enzymes): poor substrate
